Earlier results, collected in paper PMC3758109 (ChemistryOpen, 2012).

Details: humans, intravenous bolus injection

## inulin
  fraction cleared in fast phase: 76%
  fraction cleared in slow phase: 24%
  half-life of fast phase: 10 min
  half-life of slow phase: 86 min
